Series [1] in a line: AUCinf in rat at 10 mg/kg, po. In kind it is ADME, organism-based. To be noted: in vivo. Further details: route oral, time infinity, dose 10 mg/kg.
The nature of series [2]: Metabolic stability in human liver S9 fraction assessed as compound remaining measured after 1 hr. Format: ADME, subcellular. The settings on record: read-out: Stability.
The nature of series [3]: Metabolic stability in rat liver S9 fraction assessed as compound remaining measured after 1 hr. In kind it is ADME, subcellular. The settings on record: read-out: Stability.
Series [4] is described as follows: Clearance in rat at 2 mg/kg. In kind it is ADME, organism-based. The settings on record: in vivo.

In general, AUC(0-inf) refers to the area under the concentration-time curve extrapolated to infinity. As a reminder, the clearance is the rate of elimination divided by the concentration. A higher clearance goes with efficient removal.

As for `NC(=O)c1cnc(NC23CC(C2)C3)nc1N[C@@H]1CCC[C@H](O)C1`, the total exposure AUC(0-inf) in series [1] amounted to 2.25 µM·h. For the same compound, the remaining at 1 h is 96% in series [2] and 75% in series [3].
As to `CO[C@H]1CCC[C@@H](Nc2nc(N[C@H]3CC[C@H](OC)CC3)ncc2C(N)=O)C1`, the remaining at 1 h in series [2] was determined as 91%; in series [3] it was 47%.
Taken in the same sequence, the figures for `CO[C@H]1CC[C@H](Nc2ncc(C(N)=O)c(N[C@@H]3CCCC(F)(F)C3)n2)CC1` (mixture of isomers) were 61% and 1%.
Regarding `NC(=O)c1cnc(NC2CCCCC2)nc1N[C@@H]1CCC[C@H](O)C1`, the figures for the remaining at 1 h in series [2] and in series [3] were 77% and 1%, respectively.
Compound `CC(C)(C)Nc1ncc(C(N)=O)c(N[C@@H]2CCC[C@H](O)C2)n1` showed an AUC(0-inf) in series [1] of 10.8 µM·h. The compound further gave a clearance in series [4] of 78 mL/min/kg. Also, the remaining at 1 h in series [2] was found to be 93%; in series [3], 98%.
As to `C[C@@H]1CC[C@@H](Nc2nc(NC(C)(C)C)ncc2C(N)=O)C[C@H]1O` [CC-90001], the AUC(0-inf) in series [1] was 35.5 µM·h. In series [4], this compound registered a clearance of 11 mL/min/kg.

The values are drawn from ChEMBL document CHEMBL4840378 (J Med Chem, 2021).
